# Results reported in US20160333419A1, “GENE SIGNATURES ASSOCIATED WITH SENSITIVITY TO MDM2 INHIBITORS” (DAIICHI SANKYO COMPANY, LIMITED, priority 2014, published 2016).
# Tests used:
# Experiment in all cases: OncoPanel cytotoxicity assay
# Assay type in all cases: cell-based
# MT-3 = settings: Homo sapiens, 72 hour incubation
# Description: (§1) Cells were grown in RPMI 1640, 10% FBS, 2 mM L-alanyl-L-Glutamine, 1 mM Na Pyruvate, or a special medium in a humidified atmosphere of 5% CO2 at 37° C. Cells were seeded into 384-well plates and incubated in a humidified atmosphere of 5% CO2 at 37° C. Test compounds were added 24 hours post cell seeding. At the same time, a time zero, untreated cell plate was generated as a control. After a 72 hour incubation period, cells were fixed and stained with nuclear dye to allow visualization of nuclei.
# (§2) Compounds were serially diluted 3.16-fold and assayed over 10 concentrations of inhibitor in a final assay concentration of 0.1% DMSO from the highest test concentration specified in the sample information chapter. Automated fluorescence microscopy was carried out using a GE Healthcare InCell Analyzer 1000, and images were collected with a 4× objective. Twelve bit tiff images were acquired using the InCell Analyzer 1000 3.2 and analyzed with Developer Toolbox 1.6 software.
# (§3) Cell proliferation was measured by the signal intensity of the incorporated nuclear dye. The cell proliferation assay output is referred to as the relative cell count. To determine the cell proliferation end point, the cell proliferation data output is transformed to percent of control (POC) using the following formula: […]
# (§4) Relative cell count IC50 (IC50) is the test compound's concentration that produces 50% of the cell proliferation inhibitory response or 50% cytotoxicity level. IC50 values were calculated using nonlinear regression to fit data to a sigmoidal 4 point, 4 parameter One-Site dose response model, where: y (fit)=A+[(B−A)/(1+((C/x)̂D))]. Curve-fitting, IC50 calculations and report generation were performed using a custom data reduction engine MathIQ based software (AIM). […] In these cases, the IC50 values were expressed as 40 μM and 10 μM, respectively (Table 2).
# SK-N-FI = settings: Homo sapiens, 72 hour incubation
# Description: as §1, §2, §3, §4
# HuCCT1 = settings: Homo sapiens, HuCCT-1, 72 hour incubation
# Description: as §1, §2, §3, §4
# MHH-PREB-1 = settings: Homo sapiens, 72 hour incubation
# Description: as §1, §2, §3, §4
# BV-173 = settings: Homo sapiens, 72 hour incubation
# Description: as §1, §2, §3, §4
# SJRH30 = settings: Homo sapiens, 72 hour incubation
# Description: as §1, §2, §3, §4
# RL95-2 = settings: Homo sapiens, 72 hour incubation
# Description: as §1, §2, §3, §4
# SW-13 = settings: Homo sapiens, SW13, 72 hour incubation
# Description: as §1, §2, §3, §4
# MOLT-16 = settings: Homo sapiens, 72 hour incubation
# Description: as §1, §2, §3, §4
# K562 = settings: Homo sapiens, 72 hour incubation
# Description: as §1, §2, §3, §4
# SK-N-DZ = settings: Homo sapiens, 72 hour incubation
# Description: as §1, §2, §3, §4
# CGTH-W-1 = settings: Homo sapiens, 72 hour incubation
# Description: as §1, §2, §3, §4
# Y79 = settings: Homo sapiens, 72 hour incubation
# Description: as §1, §2, §3, §4
# EFM-19 = settings: Homo sapiens, 72 hour incubation
# Description: as §1, §2, §3, §4
# C32TG = settings: Homo sapiens, 72 hour incubation
# Description: as §1, §2, §3, §4
# A-673 = settings: Homo sapiens, A673, 72 hour incubation
# Description: as §1, §2, §3, §4
# Calu6 = settings: Homo sapiens, Calu-6, 72 hour incubation
# Description: as §1, §2, §3, §4
# U2OS = settings: Homo sapiens, 72 hour incubation
# Description: as §1, §2, §3, §4
# MDA MB 453 = settings: Homo sapiens, 72 hour incubation
# Description: as §1, §2, §3, §4
# 22Rv1 = settings: Homo sapiens, 72 hour incubation
# Description: as §1, §2, §3, §4
# SKO-007 = settings: Homo sapiens, 72 hour incubation
# Description: as §1, §2, §3, §4
# SW1417 = settings: Homo sapiens, 72 hour incubation
# Description: as §1, §2, §3, §4
# MDA MB 468 = settings: Homo sapiens, 72 hour incubation
# Description: as §1, §2, §3, §4
# SK-MEL-1 = settings: Homo sapiens, 72 hour incubation
# Description: as §1, §2, §3, §4
# SW982 = settings: Homo sapiens, 72 hour incubation
# Description: as §1, §2, §3, §4
# SK-BR-3 = settings: Homo sapiens, 72 hour incubation
# Description: as §1, §2, §3, §4
# HPAF-II = settings: Homo sapiens, 72 hour incubation
# Description: as §1, §2, §3, §4
# SK-UT-1 = settings: Homo sapiens, 72 hour incubation
# Description: as §1, §2, §3, §4
# CaOV3 = settings: Homo sapiens, Caov-3, 72 hour incubation
# Description: as §1, §2, §3, §4
# Calu1 = settings: Homo sapiens, Calu-1, 72 hour incubation
# Description: as §1, §2, §3, §4
# SCC-9 = settings: Homo sapiens, 72 hour incubation
# Description: as §1, §2, §3, §4
# KLE = settings: Homo sapiens, 72 hour incubation
# Description: as §1, §2, §3, §4
# A204 = settings: Homo sapiens, 72 hour incubation
# Description: as §1, §2, §3, §4
# CAL-62 = settings: Homo sapiens, 72 hour incubation
# Description: as §1, §2, §3, §4
# CCRFCEM = settings: Homo sapiens, CCRF-CEM, 72 hour incubation
# Description: as §1, §2, §3, §4
# BPH1 = settings: Homo sapiens, BPH-1, 72 hour incubation
# Description: as §1, §2, §3, §4
# SNU-1 = settings: Homo sapiens, SNU1, 72 hour incubation
# Description: as §1, §2, §3, §4
# Thp1 = settings: Homo sapiens, THP-1, 72 hour incubation
# Description: as §1, §2, §3, §4
SMILES,IC50 (MT-3) [µM],IC50 (SK-N-FI) [µM],IC50 (HuCCT1) [µM],IC50 (MHH-PREB-1) [µM],IC50 (BV-173) [µM],IC50 (SJRH30) [µM],IC50 (RL95-2) [µM],IC50 (SW-13) [µM],IC50 (MOLT-16) [µM],IC50 (K562) [µM],IC50 (SK-N-DZ) [µM],IC50 (CGTH-W-1) [µM],IC50 (Y79) [µM],IC50 (EFM-19) [µM],IC50 (C32TG) [µM],IC50 (A-673) [µM],IC50 (Calu6) [µM],IC50 (U2OS) [µM],IC50 (MDA MB 453) [µM],IC50 (22Rv1) [µM],other results
"CC[C@@H]1CNC2(CC2)CN1C(=O)[C@@H]1C[C@@H](F)CN1C(=O)C1=C(C(C)C)N2C(=N[C@@](C)(c3ccc(Cl)nc3)[C@H]2c2ccc(Cl)c(F)c2)S1 [Compound A, [(5R,6S)-5-(4-Chloro-3-fluorophenyl)-6-(6-chloropyridin-3-yl)-6-methyl-3-(propan-2-yl)-5,6-dihydroimidazo[2,1-b][1,3]thiazol-2-yl][(2S,4R)-2-{[(6R)-6-ethyl-4,7-diazaspiro[2.5]oct-7-yl]carbonyl}-4-fluoropyrrolidin-1-yl]methanone]",1.13,> 40,> 40,> 40,0.601,> 40,13.8,8.33,0.236,> 40,> 40,> 40,1.05,> 40,0.36,> 40,> 40,1.24,32.8,1.31,IC50 (SKO-007): > 40 µM; IC50 (SW1417): > 40 µM; IC50 (MDA MB 468): 36.2 µM; IC50 (SK-MEL-1): 0.207 µM; IC50 (SW982): 0.232 µM; IC50 (SK-BR-3): 27.7 µM; IC50 (HPAF-II): > 40 µM; IC50 (SK-UT-1): > 40 µM; IC50 (CaOV3): > 40 µM; IC50 (Calu1): > 40 µM; IC50 (SCC-9): > 40 µM; IC50 (KLE): > 40 µM; IC50 (A204): 0.755 µM; IC50 (CAL-62): > 40 µM; IC50 (CCRFCEM): > 40 µM; IC50 (BPH1): > 40 µM; IC50 (SNU-1): 0.412 µM; IC50 (Thp1): > 40 µM
"CC1(C)CCC2(CC1)N[C@@H](C(=O)N[C@@H]1CC[C@@H](C(N)=O)OC1)[C@H](c1ccnc(Cl)c1F)[C@]21C(=O)Nc2cc(Cl)ccc21 [Compound B, (3′R,4′S,5′R)—N-[(3R,6S)-6-carbamoyltetrahydro-2H-pyran-3-yl]-6″-chloro-4′-(2-chloro-3-fluoropyridin-4-yl)-4,4-dimethyl-2″-oxo-1″,2″-dihydrodispiro[cyclohexane-1,2′-pyrrolidine-3′,3″-indole]-5′-carboxamide]",0.164,> 10,> 10,8.3,0.0873,7.24,3.72,8.45,0.0598,> 10,> 10,8.04,0.159,> 10,0.0329,9.21,5.38,0.248,9.29,0.109,IC50 (SKO-007): 8.64 µM; IC50 (SW1417): > 10 µM; IC50 (MDA MB 468): 8.12 µM; IC50 (SK-MEL-1): 0.0293 µM; IC50 (SW982): 0.0209 µM; IC50 (SK-BR-3): > 10 µM; IC50 (HPAF-II): 5.79 µM; IC50 (SK-UT-1): > 10 µM; IC50 (CaOV3): > 10 µM; IC50 (Calu1): > 10 µM; IC50 (SCC-9): > 10 µM; IC50 (KLE): > 10 µM; IC50 (A204): 0.0294 µM; IC50 (CAL-62): > 10 µM; IC50 (CCRFCEM): > 10 µM; IC50 (BPH1): > 10 µM; IC50 (SNU-1): 0.135 µM; IC50 (Thp1): > 10 µM
